Among the data in ChEMBL document CHEMBL1152890, “Synthesis and evaluation of a novel series of heterocyclic oleanolic acid derivatives with anti-osteoclast formation activity” (Eur J Med Chem, 2009) are Activity and viability values, retold here.

The nature of series [1]: Antiosteoclast activity in ICR mouse osteoblast like cells co-cultured with bone marrow cells assessed as effect on 1-alpha,25(OH)2D3-induced TRAP-positive osteoclast like multinucleated cell formation at 2 uM after 6 days medium replaced every 2 days relative to control. The format is functional.
The nature of series [2]: Cytotoxicity against ICR mouse osteoblast like cells assessed as cell viability at 2 uM after 4 days drug removal after 2 days by MTT assay relative to control. The note with it: read-out: Activity. The format is cell-based. On the technique in general: Tetrazolium assays rely on reduction of a dye to a coloured formazan, in cell work by metabolically active cells.
A short description of series [3]: Antiosteoclast activity in ICR mouse osteoblast like cells co-cultured with bone marrow cells assessed as effect on 1-alpha,25(OH)2D3-induced TRAP-positive osteoclast like multinucleated cell formation at 200 uM after 6 days medium replaced every 2 days relative to control. In kind it is functional.
Series [4] is described as follows: Antiosteoclast activity in ICR mouse osteoblast like cells co-cultured with bone marrow cells assessed as effect on 1-alpha,25(OH)2D3-induced TRAP-positive osteoclast like multinucleated cell formation at 20 uM after 6 days medium replaced every 2 days relative to control. The format is functional.
Series [5] is described as follows: Antiosteoclast activity in ICR mouse osteoblast like cells co-cultured with bone marrow cells assessed as recovery of 1-alpha,25(OH)2D3-induced TRAP-positive osteoclast like multinucleated cell formation at 20 uM after 6 days drug removal after 2 days relative to control. The format is functional.
A short description of series [6]: Antiosteoclast activity in ICR mouse osteoblast like cells co-cultured with bone marrow cells assessed as recovery of 1-alpha,25(OH)2D3-induced TRAP-positive osteoclast like multinucleated cell formation at 2 uM after 6 days drug removal after 2 days relative to control. The format is functional.

Take `CC1(C)CC[C@]2(C(=O)O)CC[C@]3(C)C(=CC[C@@H]4[C@@]5(C)Cc6cc7ccccc7nc6C(C)(C)[C@@H]5CC[C@]43C)[C@@H]2C1`: the Activity in series [1] was 39.2%; in series [3], 97.2%; in series [4] it was 33.2%; in series [5], 18.9%; in series [6], 73%. The viability at 96 h, 2 µM in series [2] was determined as 134%.

Take `COC(=O)CNC(=O)[C@]12CCC(C)(C)C[C@H]1C1=CC[C@@H]3[C@@]4(C)CCC(=O)C(C)(C)[C@@H]4CC[C@@]3(C)[C@]1(C)CC2`: the Activity in series [1] is listed as 27.2%; in series [3], 31.7%; in series [4], 0%; in series [5] it was 41.3%; in series [6], 73.9%. The viability at 96 h, 2 µM in series [2] was determined as 141%.

With `CC1(C)CC[C@]2(C(=O)O)CC[C@]3(C)C(=CC[C@@H]4[C@@]5(C)Cc6c([nH]c7ccc(Cl)cc67)C(C)(C)[C@@H]5CC[C@]43C)[C@@H]2C1`, the Activity in series [1] came out at 13%; in series [3], 99.5%; in series [4] it was 0%; in series [5], 0%; in series [6], 73.3%. For the same compound, the viability at 96 h, 2 µM in series [2] came to 132%.

Regarding `CC[C@H](C)[C@H](NC(=O)[C@]12CCC(C)(C)C[C@H]1C1=CC[C@@H]3[C@@]4(C)Cc5nccnc5C(C)(C)[C@@H]4CC[C@@]3(C)[C@]1(C)CC2)C(=O)O`, the Activity was determined as 16.2% in series [1], 52.6% in series [3], 73.7% in series [4] and 81.3% in series [6]. Also, in series [2], the viability at 96 h, 2 µM is 109%.

Consider `COC(=O)[C@@H](NC(=O)[C@]12CCC(C)(C)C[C@H]1C1=CC[C@@H]3[C@@]4(C)Cc5nccnc5C(C)(C)[C@@H]4CC[C@@]3(C)[C@]1(C)CC2)C(C)C`, for which the Activity in series [1] is given as 59.8%; in series [3] it was 78.4%; in series [4], 27.8%; in series [5] it was 73.1%; in series [6] it was 77.6%. Besides, the viability at 96 h, 2 µM in series [2] was found to be 142%.

As to `CC(C)[C@H](NC(=O)[C@]12CCC(C)(C)C[C@H]1C1=CC[C@@H]3[C@@]4(C)Cc5nc6ccccc6nc5C(C)(C)[C@@H]4CC[C@@]3(C)[C@]1(C)CC2)C(=O)O`, the Activity in series [1] was 47.3%; in series [3], 57.5%; in series [4] it was 42.8%; in series [6] it was 70.6%. The viability at 96 h, 2 µM in series [2] amounted to 128%.
